From ChEMBL document CHEMBL6153074, “Discovery of novel dual tubulin and MMPs inhibitors for the treatment of lung cancer and overcoming drug resistance” (Eur J Med Chem, 2025)
Activity calls are given as the source filed them. The calls are words filed in the database; no cut-off is given here.

Tests used:
A549 [1] = assay: Induction of cell cycle arrest in human A549 cells assessed as accumulation at S phase at 0.5 uM incubated for 24 hrs by PI staining based flow cytometry (reference value: 37.95 %); type: functional
MDA-MB-231 = assay: Antiproliferative activity against human MDA-MB-231 cells by CCK8 assay
A549 [2] = assay: Downregulation of NF-kappaB p65 phosphorylation in TNF-alpha-treated human A549 cells by Western blot analysis; type: functional, cell-based
A549 [3] = assay: Induction of mitochondrial membrane potential loss in human A549 cells at 0.25 uM incubated for 24 hrs by JC-1 dye based analysis (reference value: 3.14 %); type: functional
A549 [4] = assay: Anti-migration activity in human A549 cells assessed as migration rate at 0.5 uM incubated for 24 hrs by wound healing assay (reference value: 73.94 %); type: functional
A549 [5] = assay: Induction of cell cycle arrest in human A549 cells assessed as accumulation at G2 phase at 0.25 uM incubated for 24 hrs by PI staining based flow cytometry (reference value: 3.37 %); type: functional
A549 [6] = assay: cells; conditions: Homo sapiens
Description: Antiproliferative activity against human A549 cells by CCK8 assay

A549 [7] = assay: Induction of apoptosis in human A549 cells assessed as increase in cleaved caspase-3 level at 0.5 uM incubated for 24 hrs by Western blot analysis; type: functional, cell-based
A549 [8] = assay: Antitumor activity against human A549 cells xenografted in BALB/c mouse assessed as decrease in Ki67 level at 20 mg/kg, ip for 3 weeks administered on every 2 days by IHC analysis; type: functional, organism-based
[9] = Antiproliferative activity against human L02 cells by CCK8 assay; type: toxicity, cell-based
[10] = Toxicity in BALB/c mouse xenografted with human A549 cells assessed as effect on heart at 10 to 20 mg/kg, ip for 3 weeks administered on every 2 days by H and E staining based analysis; type: organism-based; conditions: in vivo, 504 h, dose 10-20 mg/kg
Tubulin (Homo sapiens) [11] = molecular target: T1, Tubulin (Homo sapiens) (UniProt P68371+Q9H4B7+P0DPH7+P68366+Q13509+Q71U36+P04350+Q3ZCM7+P07437+P68363+Q9BQE3+Q6PEY2+Q13885+Q9BVA1+Q9BUF5); assay: Inhibition of tubulin polymerization (unknown origin) incubated for 65 mins by fluorescence based analysis; type: protein-complex assay; conditions: dose 0.625-20 µM
A549 [12] = assay: Induction of cell cycle arrest in human A549 cells assessed as decrease in cdc2 by Western blot analysis; type: functional, cell-based
A549 [13] = assay: Induction of cell cycle arrest in human A549 cells assessed as accumulation at S phase at 0.25 uM incubated for 24 hrs by PI staining based flow cytometry (reference value: 37.95 %); type: functional
A549 [14] = assay: Induction of apoptosis in human A549 cells assessed as necrotic cells at 0.25 uM incubated for 24 hrs by Annexin V-FITC/PI staining based flow cytometry (reference value: 0.13 %); type: functional
[15] = Toxicity in BALB/c mouse xenografted with human A549 cells assessed as effect on kidney at 10 to 20 mg/kg, ip for 3 weeks administered on every 2 days by H and E staining based analysis; type: organism-based; conditions: in vivo, 504 h, dose 10-20 mg/kg
A549 [16] = assay: Induction of apoptosis in human A549 cells assessed as late apoptotic cells at 0.25 uM incubated for 24 hrs by Annexin V-FITC/PI staining based flow cytometry (reference value: 1.01 %); type: functional
[17] = Stability of compound in DMEM containing 1 percent DMF at pH 7.4 measured for 24 to 72 hrs; type: physicochemical; conditions: buffer, time 24-72 hrs
A549 [18] = assay: Induction of cell cycle arrest in human A549 cells assessed as decrease in cdc25c by Western blot analysis; type: functional, cell-based
A549 [19] = assay: Induction of apoptosis in human A549 cells assessed as early apoptotic cells at 0.5 uM incubated for 24 hrs by Annexin V-FITC/PI staining based flow cytometry (reference value: 3.04 %); type: functional
Stromelysin-1 = Stromelysin-1 (Homo sapiens, UniProt P08254); assay: Inhibition of MMP-3 (unknown origin) using fluorogenic-McaPro-Leu-Gly-Leu-Dpa-Ala-Arg-NH2 as substrate
Stromelysin-1, sequence (P08254 whole entry, the tested form may be a part): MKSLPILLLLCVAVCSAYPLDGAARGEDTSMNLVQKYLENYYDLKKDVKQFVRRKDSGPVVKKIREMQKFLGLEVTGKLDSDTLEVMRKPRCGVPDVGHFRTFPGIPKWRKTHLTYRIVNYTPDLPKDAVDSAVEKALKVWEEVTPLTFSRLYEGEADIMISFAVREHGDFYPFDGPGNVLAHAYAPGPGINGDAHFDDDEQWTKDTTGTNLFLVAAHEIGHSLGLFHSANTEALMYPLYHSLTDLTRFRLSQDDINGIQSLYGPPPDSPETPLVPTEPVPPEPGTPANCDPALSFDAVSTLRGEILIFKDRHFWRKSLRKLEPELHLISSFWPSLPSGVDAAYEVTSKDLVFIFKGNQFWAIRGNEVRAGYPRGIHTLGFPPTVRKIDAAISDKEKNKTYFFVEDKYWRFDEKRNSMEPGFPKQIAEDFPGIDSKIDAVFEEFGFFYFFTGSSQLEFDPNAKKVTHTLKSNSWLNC

A549 [20] = assay: Induction of mitochondrial fragmentation in human A549 cells assessed as increase in green fluorescence at 0.5 uM incubated for 24 hrs by JC-1 dye based analysis; type: functional, cell-based
A549 [21] = assay: Induction of mitochondrial membrane potential loss in human A549 cells at 0.5 uM incubated for 24 hrs by JC-1 dye based analysis (reference value: 3.14 %); type: functional
A549 [22] = assay: Induction of DNA damage in human A549 cells assessed as increase in gamma-H2AX level at 0.5 uM incubated for 24 hrs by immunofluorescence based analysis; type: functional, cell-based
A549 [23] = assay: Induction of apoptosis in human A549 cells assessed as late apoptotic cells at 0.5 uM incubated for 24 hrs by Annexin V-FITC/PI staining based flow cytometry (reference value: 1.01 %); type: functional
A549 [24] = assay: Anti-angiogenesis effect in human A549 cells assessed as disruption of tube-like network formation at 0.25 to 0.5 uM incubated for 6 hrs by tube formation assay; type: functional, cell-based; conditions: dose 0.25-0.5 µM
A549 [25] = assay: Antitumor activity against human A549 cells xenografted in BALB/c mouse at 10 mg/kg, ip for 3 weeks administered on every 2 days relative to control; type: functional; conditions: A549, 504 h, read-out: TGI
A549 [26] = assay: Anti-migration activity in human A549 cells assessed as migration rate at 0.25 uM incubated for 24 hrs by wound healing assay (reference value: 73.94 %); type: functional
NCI-H460 = assay: Antiproliferative activity against human NCI-H460 cells by CCK8 assay
A549 [27] = assay: Induction of cell cycle arrest in human A549 cells assessed as accumulation at G1 phase at 0.25 uM incubated for 24 hrs by PI staining based flow cytometry (reference value: 58.67 %); type: functional
MCF7 = assay: Antiproliferative activity against human MCF7 cells by CCK8 assay
[28] = Stability of compound in PBS at pH 7.4 measured for 24 to 72 hrs; type: physicochemical; conditions: buffer, time 24-72 hrs
A549 [29] = assay: Induction of apoptosis in human A549 cells assessed as necrotic cells at 0.5 uM incubated for 24 hrs by Annexin V-FITC/PI staining based flow cytometry (reference value: 0.13 %); type: functional
A549 [30] = assay: Induction of cell cycle arrest in human A549 cells assessed as accumulation at G1 phase at 0.5 uM incubated for 24 hrs by PI staining based flow cytometry (reference value: 58.67 %); type: functional
Tubulin (Homo sapiens) [31] = molecular target: T1, Tubulin (Homo sapiens); assay: Disruption of microtubule network in human A549 cells assessed as contraction towards cell border at 2.5 to 5 uM incubated for 24 hrs by immunofluorescence based analysis; conditions: dose 2.5-5 µM
A549 [32] = assay: Induction of cell cycle arrest in human A549 cells assessed as accumulation at G2 phase at 0.5 uM incubated for 24 hrs by PI staining based flow cytometry (reference value: 3.37 %); type: functional
A549 [33] = assay: Induction of cell cycle arrest in human A549 cells assessed as decrease in cyclin B1 by Western blot analysis; type: functional, cell-based
Tubulin (Homo sapiens) [34] = molecular target: T1, Tubulin (Homo sapiens); assay: Disruption of microtubule network in human A549 cells assessed as cell disorganisation at 2.5 to 5 uM incubated for 24 hrs by immunofluorescence based analysis; conditions: dose 2.5-5 µM

IC50 (MDA-MB-231): 0.296 µM | IC50 (A549 [6]): 0.154 µM | inhibition (Tubulin (Homo sapiens) [11]): Dose-dependent-effect | Stability [17]: Stable | IC50 (Stromelysin-1): 36.5 µM | IC50 (NCI-H460): 0.186 µM | IC50 (MCF7): 0.253 µM | Stability [28]: Stable | Activity (Tubulin (Homo sapiens) [31]): Active | Activity (Tubulin (Homo sapiens) [34]): Active
SMILES: CCOP(=O)(OCC)C(Nc1ccc(CC(=O)Oc2cc(/C=C/C(=O)c3cc(OC)c(OC)c(OC)c3)ccc2OC)cc1)c1cccc([N+](=O)[O-])c1 (stereo not drawn)
Activity (A549 [1]): 3.19% | Activity (A549 [2]): Active | Activity (A549 [3]): 27.19% | Activity (A549 [4]): 25.17% | Activity (A549 [5]): 37.79% | Activity (A549 [7]): Active | Activity (A549 [8]): Active | IC50 [9]: 2.21 µM | Activity [10]: Non-toxic | Activity (A549 [12]): Active | Activity (A549 [13]): 20.12% | Activity (A549 [14]): 0.3% | Activity [15]: Non-toxic | Activity (A549 [16]): 3.62% | Activity (A549 [18]): Active | Activity (A549 [19]): 34.86% | Activity (A549 [20]): Active | Activity (A549 [21]): 56.15% | Activity (A549 [22]): Active | Activity (A549 [23]): 6.34% | Activity (A549 [24]): Active | inhibition in vivo at 10 mg/kg (A549 [25]): 53.3% | Activity (A549 [26]): 62.35% | Activity (A549 [27]): 42.09% | Activity (A549 [29]): 0.93% | Activity (A549 [30]): 15.53% | Activity (A549 [32]): 81.23% | Activity (A549 [33]): Active
